Reference: article PMC7614683, “A small molecule PI3Kα activator for cardioprotection and neuroregeneration” (Nature, 2023)

Biological target: T1, full length p110α/p85α (Homo sapiens, UniProt P42336)
T1 construct: Full-length human p110α was expressed either in a complex with full-length human p85α (for HTS, biochemistry and HDX-MS); 6xHis tag followed by TEV protease site (N); host or cells: Spodoptera frugiperda Sf9, baculovirus
Assay: HDX-MS
Assay type: binding
Method: Sample preparation: HDX-MS experiments were carried out as described previously. […] In total, three biological replicates, i.e. three separate protein preparations, each with exchange experiments carried out in triplicate were conducted. Data presented in the manuscript is a single biological replicate. Data acquisition and analysis were as follows: Each sample was thawed and injected onto an M-Class Acquity UPLC with HDX Technology (Waters) kept at 0.1°C. Proteins were digested in-line using an Enzymate Pepsin Column (Waters, #186007233) at 15°C for 2 min at 200 μl/min. Peptic peptides were then eluted onto an Acquity UPLC BEH C18 Column (Waters, #186002346) equilibrated in Pepsin-A buffer (0.1% formic acid) and separated using a 5-35% gradient of Pepsin-B buffer (0.1% formic acid, 99% acetonitrile) over 7 min at a flowrate of 40 μl/min. Data were collected on a Waters Cyclic IMS, with an electrospray ionisation source, from 50-2000 m/z. Data were collected in the HDMS^E mode. A single pass of the cyclic IMS was conducted. A “blank” sample of protein dilution buffer with quench was run between samples, and carry-over of peptides was routinely monitored. Five replicates were used to identify non-deuterated peptides. Criteria used to include peptides in the HDX-MS dataset were: minimum intensity 5000, minimum sequence length 5, maximum sequence length 25, a minimum of 3 fragment ions, a minimum of 0.1 products per amino acid, a minimum score of 6.62, a maximum MH+ Error of 10 ppm, identification in at least two datasets with a retention time RSD of less than 10%. Data was analysed using Protein Lynx Global Server (Waters) and DynamX (Waters). All peptides were manually inspected for EX1 kinetics and sufficient quality of the peptide envelope. Data quality, experiment design, and reporting of data meets the criteria as determined by the HDX-MS community. Uptake files were created using Baryonyx. Data are available via ProteomeXchange with identifier PXD037721.

[1] = PK3CA_HUMAN peptide 334-341, time point 1 of 5
[2] = PK3CA_HUMAN peptide 334-341, time point 2 of 5
[3] = PK3CA_HUMAN peptide 334-341, time point 3 of 5
[4] = PK3CA_HUMAN peptide 334-341, time point 4 of 5
[5] = PK3CA_HUMAN peptide 334-341, time point 5 of 5
[6] = PK3CA_HUMAN peptide 342-356, time point 1 of 5
[7] = PK3CA_HUMAN peptide 342-356, time point 2 of 5
[8] = PK3CA_HUMAN peptide 342-356, time point 3 of 5
[9] = PK3CA_HUMAN peptide 342-356, time point 4 of 5
[10] = PK3CA_HUMAN peptide 342-356, time point 5 of 5
[11] = PK3CA_HUMAN peptide 356-368, time point 1 of 5
[12] = PK3CA_HUMAN peptide 356-368, time point 2 of 5
[13] = PK3CA_HUMAN peptide 356-368, time point 3 of 5
[14] = PK3CA_HUMAN peptide 356-368, time point 4 of 5
[15] = PK3CA_HUMAN peptide 356-368, time point 5 of 5
[16] = PK3CA_HUMAN peptide 369-380, time point 1 of 5
[17] = PK3CA_HUMAN peptide 369-380, time point 2 of 5
[18] = PK3CA_HUMAN peptide 369-380, time point 3 of 5
[19] = PK3CA_HUMAN peptide 369-380, time point 4 of 5
[20] = PK3CA_HUMAN peptide 369-380, time point 5 of 5
[21] = PK3CA_HUMAN peptide 371-380, time point 1 of 5
[22] = PK3CA_HUMAN peptide 371-380, time point 2 of 5
[23] = PK3CA_HUMAN peptide 371-380, time point 3 of 5
[24] = PK3CA_HUMAN peptide 371-380, time point 4 of 5
[25] = PK3CA_HUMAN peptide 371-380, time point 5 of 5

T1 sequence (P42336 whole entry): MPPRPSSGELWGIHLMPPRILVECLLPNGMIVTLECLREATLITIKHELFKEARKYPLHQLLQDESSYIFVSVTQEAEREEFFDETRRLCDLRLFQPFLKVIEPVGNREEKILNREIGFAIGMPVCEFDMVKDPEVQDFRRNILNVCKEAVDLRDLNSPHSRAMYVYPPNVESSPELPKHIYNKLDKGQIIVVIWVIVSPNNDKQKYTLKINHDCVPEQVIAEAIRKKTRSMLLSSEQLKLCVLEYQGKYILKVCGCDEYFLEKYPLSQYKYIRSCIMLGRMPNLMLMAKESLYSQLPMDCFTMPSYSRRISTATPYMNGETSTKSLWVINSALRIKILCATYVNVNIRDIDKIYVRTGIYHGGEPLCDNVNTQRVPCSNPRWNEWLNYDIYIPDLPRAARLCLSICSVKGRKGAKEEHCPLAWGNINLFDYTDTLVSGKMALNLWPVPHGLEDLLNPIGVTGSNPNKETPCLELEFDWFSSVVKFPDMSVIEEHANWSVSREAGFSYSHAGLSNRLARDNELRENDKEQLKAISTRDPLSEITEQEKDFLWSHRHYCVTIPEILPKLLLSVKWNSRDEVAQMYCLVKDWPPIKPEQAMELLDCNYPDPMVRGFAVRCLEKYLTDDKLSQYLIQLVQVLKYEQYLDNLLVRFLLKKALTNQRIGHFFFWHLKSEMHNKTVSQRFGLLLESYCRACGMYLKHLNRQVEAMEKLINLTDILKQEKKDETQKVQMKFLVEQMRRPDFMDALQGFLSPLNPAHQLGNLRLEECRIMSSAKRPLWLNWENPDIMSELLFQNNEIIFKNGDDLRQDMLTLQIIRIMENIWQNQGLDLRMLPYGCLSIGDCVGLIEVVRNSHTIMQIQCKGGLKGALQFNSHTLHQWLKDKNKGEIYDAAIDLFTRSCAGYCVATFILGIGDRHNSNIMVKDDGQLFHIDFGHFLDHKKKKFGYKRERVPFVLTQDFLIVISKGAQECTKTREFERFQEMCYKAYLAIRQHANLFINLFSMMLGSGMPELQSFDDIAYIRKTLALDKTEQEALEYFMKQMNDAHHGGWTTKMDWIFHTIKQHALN
T1 sequence (P27986 whole entry partner): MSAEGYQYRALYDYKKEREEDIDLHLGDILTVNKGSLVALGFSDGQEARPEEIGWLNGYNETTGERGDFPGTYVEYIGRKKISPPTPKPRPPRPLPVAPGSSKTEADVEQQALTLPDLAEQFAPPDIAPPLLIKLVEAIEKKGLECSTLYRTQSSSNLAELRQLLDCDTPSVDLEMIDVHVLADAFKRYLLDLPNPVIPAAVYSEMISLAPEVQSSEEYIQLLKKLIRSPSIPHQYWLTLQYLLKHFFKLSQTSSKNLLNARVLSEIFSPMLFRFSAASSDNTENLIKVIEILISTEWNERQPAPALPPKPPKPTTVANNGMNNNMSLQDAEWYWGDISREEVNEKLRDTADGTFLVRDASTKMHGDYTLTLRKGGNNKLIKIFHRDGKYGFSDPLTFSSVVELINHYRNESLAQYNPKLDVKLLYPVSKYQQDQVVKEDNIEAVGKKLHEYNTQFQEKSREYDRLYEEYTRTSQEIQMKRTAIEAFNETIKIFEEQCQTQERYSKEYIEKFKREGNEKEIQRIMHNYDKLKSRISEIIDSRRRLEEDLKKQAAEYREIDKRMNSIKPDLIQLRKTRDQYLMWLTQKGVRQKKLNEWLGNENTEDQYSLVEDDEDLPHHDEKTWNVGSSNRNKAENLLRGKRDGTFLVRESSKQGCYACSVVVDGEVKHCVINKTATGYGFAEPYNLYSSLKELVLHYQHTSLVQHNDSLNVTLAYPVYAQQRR

## CCN1CCN(c2ccc(Nc3cc(Nc4cccc5c4N(C(C)=O)CC5)ccn3)cc2)CC1 [Compound 1938]
PK3CA_HUMAN peptide 326-333, time point 5 of 5
  HDX difference (Da): -0.29 Da
[1]
  HDX difference (%D): -1.6%
  HDX difference (Da): -0.11 Da
[2]
  HDX difference (%D): -0.186%
  HDX difference (Da): -0.013 Da
[3]
  HDX difference (%D): -0.0541%
  HDX difference (Da): -0.00379 Da
[4]
  HDX difference (%D): 0.367%
  HDX difference (Da): 0.0257 Da
[5]
  HDX difference (%D): 0.162%
  HDX difference (Da): 0.0113 Da
[6]
  HDX difference (%D): -1.7%
  HDX difference (Da): -0.24 Da
[7]
  HDX difference (%D): 0.845%
  HDX difference (Da): 0.12 Da
[8]
  HDX difference (%D): 0.00161%
  HDX difference (Da): 0.000225 Da
[9]
  HDX difference (%D): 1.1%
  HDX difference (Da): 0.16 Da
[10]
  HDX difference (%D): 0.6%
  HDX difference (Da): 0.09 Da
[11]
  HDX difference (%D): -0.8%
  HDX difference (Da): -0.10 Da
[12]
  HDX difference (%D): -1.0%
  HDX difference (Da): -0.12 Da
[13]
  HDX difference (%D): 0.8%
  HDX difference (Da): 0.09 Da
[14]
  HDX difference (%D): 0.0672%
  HDX difference (Da): 0.00807 Da
[15]
  HDX difference (%D): 0.6%
  HDX difference (Da): 0.0745 Da
[16]
  HDX difference (%D): -2.7%
  HDX difference (Da): -0.30 Da
[17]
  HDX difference (%D): 1.2%
  HDX difference (Da): 0.14 Da
[18]
  HDX difference (%D): -1.1%
  HDX difference (Da): -0.12 Da
[19]
  HDX difference (%D): -0.8%
  HDX difference (Da): -0.08 Da
[20]
  HDX difference (%D): 0.6%
  HDX difference (Da): 0.07 Da
[21]
  HDX difference (%D): -3.7%
  HDX difference (Da): -0.33 Da
[22]
  HDX difference (%D): -0.454%
  HDX difference (Da): -0.04 Da
[23]
  HDX difference (%D): -1.7%
  HDX difference (Da): -0.15 Da
[24]
  HDX difference (%D): -2.6%
  HDX difference (Da): -0.23 Da
[25]
  HDX difference (%D): 0.329%
  HDX difference (Da): 0.03 Da
PK3CA_HUMAN peptide 457-466, time column 1 of 5, deuterium exchange time 0.005
  HDX difference, percentage: -0.467%
PK3CA_HUMAN peptide 457-466, time column 2 of 5, deuterium exchange time 0.05
  HDX difference, percentage: -0.449%
PK3CA_HUMAN peptide 457-466, time column 3 of 5, deuterium exchange time 0.5
  HDX difference, percentage: 0.346%
PK3CA_HUMAN peptide 457-466, time column 4 of 5, deuterium exchange time 5
  HDX difference, percentage: -0.9%
PK3CA_HUMAN peptide 457-466, time column 5 of 5
  HDX difference, percentage: -1.0%
PK3CA_HUMAN peptide 467-476, time column 1 of 5, deuterium exchange time 0.005
  HDX difference, percentage: -1.4%
PK3CA_HUMAN peptide 467-476, time column 2 of 5, deuterium exchange time 0.05
  HDX difference, percentage: -0.5%
PK3CA_HUMAN peptide 467-476, time column 3 of 5, deuterium exchange time 0.5
  HDX difference, percentage: -0.7%
PK3CA_HUMAN peptide 467-476, time column 4 of 5, deuterium exchange time 5
  HDX difference, percentage: -0.9%
PK3CA_HUMAN peptide 467-476, time column 5 of 5
  HDX difference, percentage: -0.552%
PK3CA_HUMAN peptide 477-486, time column 1 of 5, deuterium exchange time 0.005
  HDX difference, percentage: -1.6%
PK3CA_HUMAN peptide 477-486, time column 2 of 5, deuterium exchange time 0.05
  HDX difference, percentage: 0.186%
PK3CA_HUMAN peptide 477-486, time column 3 of 5, deuterium exchange time 0.5
  HDX difference, percentage: 0.327%
PK3CA_HUMAN peptide 477-486, time column 4 of 5, deuterium exchange time 5
  HDX difference, percentage: -0.0919%
PK3CA_HUMAN peptide 477-486, time column 5 of 5
  HDX difference, percentage: 0.0363%
PK3CA_HUMAN peptide 487-495, time column 1 of 5, deuterium exchange time 0.005
  HDX difference, percentage: -0.747%
PK3CA_HUMAN peptide 487-495, time column 2 of 5, deuterium exchange time 0.05
  HDX difference, percentage: 0.4%
PK3CA_HUMAN peptide 487-495, time column 3 of 5, deuterium exchange time 0.5
  HDX difference, percentage: 0.0115%
PK3CA_HUMAN peptide 487-495, time column 4 of 5, deuterium exchange time 5
  HDX difference, percentage: -0.8%
PK3CA_HUMAN peptide 487-495, time column 5 of 5
  HDX difference, percentage: -0.2%
PK3CA_HUMAN peptide 487-498, time column 1 of 5, deuterium exchange time 0.005
  HDX difference, percentage: -0.239%
PK3CA_HUMAN peptide 487-498, time column 2 of 5, deuterium exchange time 0.05
  HDX difference, percentage: -0.449%
PK3CA_HUMAN peptide 487-498, time column 3 of 5, deuterium exchange time 0.5
  HDX difference, percentage: 0.176%
PK3CA_HUMAN peptide 487-498, time column 4 of 5, deuterium exchange time 5
  HDX difference, percentage: -1.0%
